What all share (format): functional
Test [1] deals with Coptotermes formosanus. Kind of test: Termiticidal activity against Coptotermes formosanus (third-instar worker and soldier) assessed as mortality at 1% wt/wt at 26.6 degC, 100% RH measured after 8 days (Rvb= 1.3 +/- 2.5%).
Test [2] has as its system Coptotermes formosanus. Kind of test: Termiticidal activity against Coptotermes formosanus (third-instar worker and soldier) assessed as mortality at 1% wt/wt at 26.6 degC, 100% RH measured after 4 days (Rvb= 0%).
The test system of test [3] is Coptotermes formosanus. Kind of test: Termiticidal activity against Coptotermes formosanus (third-instar worker and soldier) assessed as mortality at 1% wt/wt at 26.6 degC, 100% RH measured after 1 day (Rvb= 0%).
Test [4] concerns Coptotermes formosanus. In words: Termiticidal activity against Coptotermes formosanus (third-instar worker and soldier) assessed as mortality at 1% wt/wt at 26.6 degC, 100% RH measured after 21 days (Rvb= 1.3 +/- 2.5%).
Test [5] has as its system Coptotermes formosanus. In words: Termiticidal activity against Coptotermes formosanus (third-instar worker and soldier) assessed as mortality at 1% wt/wt at 26.6 degC, 100% RH measured after 18 days (Rvb= 1.3 +/- 2.5%).
Test [6] concerns Coptotermes formosanus. Kind of test: Termiticidal activity against Coptotermes formosanus (third-instar worker and soldier) assessed as mortality at 1% wt/wt at 26.6 degC, 100% RH measured after 15 days (Rvb= 1.3 +/- 2.5 to 5 +/- 4.1%).
Test [7] relates to Coptotermes formosanus. Kind of test: Termiticidal activity against Coptotermes formosanus (third-instar worker and soldier) assessed as mortality at 1% wt/wt at 26.6 degC, 100% RH measured after 11 days (Rvb= 1.3 +/- 2.5%).
Test [8] has as its system Coptotermes formosanus. In words: Termiticidal activity against Coptotermes formosanus (third-instar worker and soldier) assessed as mortality at 0.5% wt/wt at 26.6 degC, 100% RH measured after 5 days.
Test [9] has as its system Coptotermes formosanus. In words: Termiticidal activity against Coptotermes formosanus (third-instar worker and soldier) assessed as mortality at 1% wt/wt at 26.6 degC, 100% RH measured after 3 days (Rvb= 0%).
In test [10] the test system is Coptotermes formosanus. In words: Termiticidal activity against Coptotermes formosanus (third-instar worker and soldier) assessed as mortality at 1% wt/wt at 26.6 degC, 100% RH measured after 17 days (Rvb= 5 +/- 4.1%).
The test system of test [11] is Coptotermes formosanus. Kind of test: Termiticidal activity against Coptotermes formosanus (third-instar worker and soldier) assessed as mortality at 1% wt/wt at 26.6 degC, 100% RH measured after 21 days (Rvb= 1.3 +/- 2.5 to 5 +/- 4.1%).
Test [12] relates to Coptotermes formosanus. In words: Termiticidal activity against Coptotermes formosanus (third-instar worker and soldier) assessed as mortality at 1% wt/wt at 26.6 degC, 100% RH measured after 9 days (Rvb= 3.8 +/- 4.8%).
Test [13] has as its system Coptotermes formosanus. In words: Termiticidal activity against Coptotermes formosanus (third-instar worker and soldier) assessed as mortality at 1% wt/wt at 26.6 degC, 100% RH measured after 7 days (Rvb= 3.8 +/- 4.8%).

Here are results for 17 compounds from ChEMBL document CHEMBL3045559, “Natural-product-based chromenes as a novel class of potential termiticides” (2011).

For the compound `CC1(C)C=Cc2ccc(CO)cc2O1`, the mortality with Coptotermes formosanus [1] is recorded as 100%; in the test on Coptotermes formosanus [2], 100%; in the test on Coptotermes formosanus [3], 26.3%; with Coptotermes formosanus [4] it was 100%; in the test on Coptotermes formosanus [5] it was 100%; in the test on Coptotermes formosanus [6] it was 100%. Further, the mortality in the test on Coptotermes formosanus [7] was 100%.

Take `CC1(C)C=Cc2c(CO)cccc2O1`: the mortality is reported as 100% in the test on Coptotermes formosanus [1]; 100% in the test with Coptotermes formosanus [2]; 41.3% in the test with Coptotermes formosanus [3]; 100% with Coptotermes formosanus [8]; 100% in the test with Coptotermes formosanus [4]; 100% with Coptotermes formosanus [5]. Besides, the mortality with Coptotermes formosanus [6] and with Coptotermes formosanus [7] was 100% throughout.

On to `COC(=O)c1ccc2c(c1)OC(C)(C)C=C2`, for which the mortality with Coptotermes formosanus [1] came to 100%; in the test on Coptotermes formosanus [2], 100%; in the test on Coptotermes formosanus [3], 32.5%; in the test on Coptotermes formosanus [4], 100%; in the test with Coptotermes formosanus [5], 100%; with Coptotermes formosanus [6], 100%. In addition, the mortality in the test with Coptotermes formosanus [7] stood at 100%.

With `COC(=O)c1cccc2c1C=CC(C)(C)O2`, the mortality with Coptotermes formosanus [1] is 97.5%; in the test with Coptotermes formosanus [2] it was 87.5%; in the test on Coptotermes formosanus [3], 0%; with Coptotermes formosanus [4], 100%; in the test on Coptotermes formosanus [5] it was 100%; with Coptotermes formosanus [6], 100%. Besides, the mortality in the test with Coptotermes formosanus [7] is given as 100%.

For `CNCCc1ccc2c(c1)C=CC(C)(C)O2.Cl`, the mortality in the test on Coptotermes formosanus [1] came to 0%; in the test with Coptotermes formosanus [2] it was 0%; with Coptotermes formosanus [3], 0%; in the test on Coptotermes formosanus [4] it was 3.8%; in the test with Coptotermes formosanus [5], 2.5%; in the test with Coptotermes formosanus [6] it was 2.5%. In addition, the mortality in the test on Coptotermes formosanus [7] worked out at 1.3%.

`CC(C)NCc1ccc2c(c1)C=CC(C)(C)O2.Cl`: the mortality with Coptotermes formosanus [1] is 55%; in the test with Coptotermes formosanus [2], 20%; in the test with Coptotermes formosanus [3], 8.8%; in the test with Coptotermes formosanus [4], 88.8%; in the test on Coptotermes formosanus [5], 88.8%; in the test with Coptotermes formosanus [6], 80%. The mortality with Coptotermes formosanus [7] came to 72.5%.

`CC(C)NCCc1ccc2c(c1)C=CC(C)(C)O2.Cl`: the mortality in the test on Coptotermes formosanus [1] worked out at 3.8%; in the test with Coptotermes formosanus [2] it was 3.8%; in the test with Coptotermes formosanus [3] it was 3.75%; in the test on Coptotermes formosanus [4], 15%; with Coptotermes formosanus [5], 8.8%; in the test on Coptotermes formosanus [6], 7.5%. Besides, the mortality in the test on Coptotermes formosanus [7] came to 5%.

With `CC1(C)C=Cc2cc(CCO)ccc2O1`, the mortality in the test with Coptotermes formosanus [1] is recorded as 33.8%; in the test with Coptotermes formosanus [2], 10%; with Coptotermes formosanus [3], 0%; with Coptotermes formosanus [4], 73.8%; in the test on Coptotermes formosanus [5], 71.3%; with Coptotermes formosanus [6] it was 70%. Also, the mortality with Coptotermes formosanus [7] came out at 56.3%.

In the case of `COC(=O)Cc1ccc2c(c1)C=CC(C)(C)O2`, the mortality in the test with Coptotermes formosanus [1] is recorded as 92.5%; with Coptotermes formosanus [2] it was 82.5%; in the test with Coptotermes formosanus [3], 12.5%; with Coptotermes formosanus [4], 100%; in the test with Coptotermes formosanus [5] it was 100%; in the test with Coptotermes formosanus [6] it was 100%. In addition, the mortality in the test on Coptotermes formosanus [7] was 100%.

Turning to `CC1(C)C=Cc2cc(C=O)ccc2O1`, the mortality with Coptotermes formosanus [1] amounted to 81.3%; with Coptotermes formosanus [2], 62.5%; in the test with Coptotermes formosanus [3] it was 51.3%; with Coptotermes formosanus [4], 98.8%; with Coptotermes formosanus [5], 98.8%; in the test on Coptotermes formosanus [6], 98.8%. The mortality in the test with Coptotermes formosanus [7] turned out to be 93.8%.

For `COC(=O)c1ccc(OC)c2c1OC(C)(C)C=C2`, the mortality is recorded as 0% in the test on Coptotermes formosanus [3]; 100% in the test on Coptotermes formosanus [8]; 2.5% in the test with Coptotermes formosanus [9]; 100% in the test with Coptotermes formosanus [10]; 100% with Coptotermes formosanus [11]; 61.3% in the test with Coptotermes formosanus [12]. Besides, the values for the mortality with Coptotermes formosanus [13] and in the test with Coptotermes formosanus [6] were 30% and 96.3%, respectively.

For `CC(=O)c1ccc2c(c1O)C=CC(C)(C)O2`, the mortality in the test on Coptotermes formosanus [3] is listed as 0%; in the test with Coptotermes formosanus [8] it was 100%; in the test on Coptotermes formosanus [9] it was 1.3%; in the test on Coptotermes formosanus [10], 100%; in the test with Coptotermes formosanus [11], 100%; in the test with Coptotermes formosanus [12], 98.8%. The figures for the mortality in the test on Coptotermes formosanus [13] and in the test with Coptotermes formosanus [6] were 66.3% and 100%, respectively.

As to `CC(C)CC(=O)N(C)CCC1=CC2C=CC(C)(C)OC2C=C1` (configuration not stated), the mortality with Coptotermes formosanus [1] was 32.5%; in the test on Coptotermes formosanus [2], 32.5%; in the test on Coptotermes formosanus [3], 6.3%; in the test with Coptotermes formosanus [4], 32.5%; with Coptotermes formosanus [5], 32.5%; with Coptotermes formosanus [6] it was 32.5%. For the same compound, the mortality in the test on Coptotermes formosanus [7] is 32.5%.

Take `CC1(C)C=Cc2cc(C(=O)O)ccc2O1`: the mortality is listed as 0% in the test on Coptotermes formosanus [1]; 0% with Coptotermes formosanus [2]; 0% with Coptotermes formosanus [3]; 2.5% in the test with Coptotermes formosanus [4]; 1.3% in the test with Coptotermes formosanus [5]; 1.3% in the test on Coptotermes formosanus [6]. The mortality with Coptotermes formosanus [7] is 0%.

Turning to `COC(=O)c1ccc2c(c1)C=CC(C)(C)O2`, the mortality stood at 100% with Coptotermes formosanus [1]; 92.5% in the test on Coptotermes formosanus [2]; 3.75% in the test on Coptotermes formosanus [3]; 100% in the test on Coptotermes formosanus [4]; 100% with Coptotermes formosanus [5]; 100% in the test with Coptotermes formosanus [6]. For the same compound, the mortality in the test with Coptotermes formosanus [7] is recorded as 100%.

As for `CC1(C)C=Cc2cc3c(cc2O1)OCO3` [6,6-DIMETHYL-6H-[1,3]DIOXOLO[4,5-G]CHROMENE], the mortality worked out at 0% in the test with Coptotermes formosanus [3]; 2.5% in the test with Coptotermes formosanus [9]; 82.5% with Coptotermes formosanus [10]; 85% in the test with Coptotermes formosanus [11]; 23.8% with Coptotermes formosanus [12]; 12.5% with Coptotermes formosanus [13]. The mortality in the test on Coptotermes formosanus [6] came to 75%.

With `CC1(C)C=Cc2cc(CO)ccc2O1` [EULATACHROMENE], the mortality in the test with Coptotermes formosanus [1] was found to be 92.5%; in the test with Coptotermes formosanus [2], 40%; in the test on Coptotermes formosanus [3], 1.3%; with Coptotermes formosanus [4], 100%; in the test with Coptotermes formosanus [5], 100%; with Coptotermes formosanus [6], 100%. Further, the mortality with Coptotermes formosanus [7] was found to be 100%.
